Measured values: patent US20260345619A1 (Principia Biopharma Inc., priority 2023, published 2026)

Test: Pre-bronchodilator FEV1 and percent predicted FEV1 by spirometry, change from baseline
Assay type: in vivo, human
Conditions: 400 mg BID, Week 12
Method: Spirometry is a standard test to measure patients' lung function.
The primary endpoint was the proportion of patients with LOAC. The key secondary endpoint for the study was change in pre-bronchodilator FEV1 from baseline at EOT.
Reversibility is defined as an increase of the absolute FEV1 after administration of bronchodilator and is measured by spirometry as postbronchodilator increase in FEV1 in percent of the prebronchodilator FEV1. After spirometry for measuring prebronchodilator FEV1, participants were to receive 2-4 puffs of albuterol/salbutamol or levalbuterol/levosalbutamol from a primed MDI. The postbronchodilator spirometry may have been repeated several times within 30 minutes after administration of bronchodilator. Alternatively, and only if it was consistent with usual office practice (to be documented), reversibility may have been performed using inhalation of nebulized albuterol/salbutamol or levalbuterol/levosalbutamol.
Secondary endpoints included pre-bronchodilator FEV1 change from baseline at EOT, ACQ-5 score change from baseline, and AQLQ score change from baseline. Other secondary and exploratory endpoints are described in Table 2.

[1] = >2 exacerbations within 2 years
[2] = baseline FEV1 <2.022 L (median)
[3] = baseline FEV1 reversibility <12%
[4] = baseline FEV1 reversibility ≥12%
[5] = baseline FEV1 ≥2.022 L (median)
[6] = baseline IgE <210.8 IU/mL (median)
[7] = baseline IgE ≥210.8 IU/mL (median)
[8] = baseline blood eosinophils <0.15 10^9/L
[9] = baseline blood eosinophils <0.3 10^9/L
[10] = baseline blood eosinophils ≥0.15 10^9/L
[11] = baseline blood eosinophils ≥0.3 10^9/L
[12] = baseline percent predicted FEV1 <68% (median)
[13] = baseline percent predicted FEV1 ≥68% (median)

CC(C)(C=C(C#N)C(=O)N1CCC[C@@H](n2nc(-c3ccc(Oc4ccccc4)cc3F)c3c(N)ncnc32)C1)N1CCN(C2COC2)CC1 (mixture of isomers) [rilzabrutinib, (R)-2-[3-[4-amino-3-(2-fluoro-4-phenoxy-phenyl)pyrazolo[3,4-d]pyrimidin-1-yl]piperidine-1-carbonyl]-4-methyl-4-[4-(oxetan-3-yl)piperazin-1-yl]pent-2-enenitrile]
Pre-bronchodilator FEV1 change from baseline, LS Mean (1 exacerbation within 2 years): -0.08 L | Pre-bronchodilator FEV1 change from baseline, LS Mean Diff vs. placebo (1 exacerbation within 2 years): -0.05 L | Pre-bronchodilator FEV1 change from baseline, Mean (1 exacerbation within 2 years): 0.05 L | Pre-bronchodilator FEV1 change from baseline, LS Mean (2 exacerbations within 2 years): -0.01 L | Pre-bronchodilator FEV1 change from baseline, LS Mean Diff vs. placebo (2 exacerbations within 2 years): 0.10 L | Pre-bronchodilator FEV1 change from baseline, Mean (2 exacerbations within 2 years): -0.06 L | Pre-bronchodilator FEV1 change from baseline, LS Mean [1]: -0.36 L | Pre-bronchodilator FEV1 change from baseline, LS Mean Diff vs. placebo [1]: -0.16 L | Pre-bronchodilator FEV1 change from baseline, Mean [1]: -0.15 L | Pre-bronchodilator FEV1 change from baseline, Mean (APAC): -0.09 L | Pre-bronchodilator FEV1 change from baseline, Mean (Eastern Europe): -0.21 L | Pre-bronchodilator FEV1 change from baseline, LS Mean (Latin America): -0.07 L | Pre-bronchodilator FEV1 change from baseline, LS Mean Diff vs. placebo (Latin America): -0.01 L | Pre-bronchodilator FEV1 change from baseline, Mean (Latin America): -0.05 L | Pre-bronchodilator FEV1 change from baseline, Mean (Western Countries): 0.24 L | Pre-bronchodilator FEV1 change from baseline, LS Mean (age <45 years): -0.13 L | Pre-bronchodilator FEV1 change from baseline, LS Mean Diff vs. placebo (age <45 years): -0.13 L | Pre-bronchodilator FEV1 change from baseline, Mean (age <45 years): -0.05 L | Pre-bronchodilator FEV1 change from baseline, LS Mean (age ≥45 years): -0.14 L | Pre-bronchodilator FEV1 change from baseline, LS Mean Diff vs. placebo (age ≥45 years): 0.02 L | Pre-bronchodilator FEV1 change from baseline, Mean (age ≥45 years): -0.03 L | Pre-bronchodilator FEV1 change from baseline, LS Mean (asthma onset age <12 years): 0.12 L | Pre-bronchodilator FEV1 change from baseline, LS Mean Diff vs. placebo (asthma onset age <12 years): 0.18 L | Pre-bronchodilator FEV1 change from baseline, Mean (asthma onset age <12 years): 0.00 L | Pre-bronchodilator FEV1 change from baseline, LS Mean (asthma onset age <18 years): -0.00 L | Pre-bronchodilator FEV1 change from baseline, LS Mean Diff vs. placebo (asthma onset age <18 years): 0.08 L | Pre-bronchodilator FEV1 change from baseline, Mean (asthma onset age <18 years): 0.04 L | Pre-bronchodilator FEV1 change from baseline, Mean (asthma onset age ≥12-<18 years): 0.12 L | Pre-bronchodilator FEV1 change from baseline, LS Mean (asthma onset age ≥18-<40 years): -0.14 L | Pre-bronchodilator FEV1 change from baseline, LS Mean Diff vs. placebo (asthma onset age ≥18-<40 years): 0.00 L | Pre-bronchodilator FEV1 change from baseline, Mean (asthma onset age ≥18-<40 years): -0.08 L | Pre-bronchodilator FEV1 change from baseline, LS Mean (asthma onset age ≥18 years): -0.17 L | Pre-bronchodilator FEV1 change from baseline, LS Mean Diff vs. placebo (asthma onset age ≥18 years): -0.03 L | Pre-bronchodilator FEV1 change from baseline, Mean (asthma onset age ≥18 years): -0.11 L | Pre-bronchodilator FEV1 change from baseline, LS Mean (asthma onset age ≥40 years): 0.00 L | Pre-bronchodilator FEV1 change from baseline, LS Mean Diff vs. placebo (asthma onset age ≥40 years): 0.07 L | Pre-bronchodilator FEV1 change from baseline, Mean (asthma onset age ≥40 years): -0.31 L | Pre-bronchodilator FEV1 change from baseline, LS Mean (atopic medical conditions: No): -0.15 L | Pre-bronchodilator FEV1 change from baseline, LS Mean Diff vs. placebo (atopic medical conditions: No): 0.10 L | Pre-bronchodilator FEV1 change from baseline, Mean (atopic medical conditions: No): -0.16 L | Pre-bronchodilator FEV1 change from baseline, LS Mean (atopic medical conditions: Yes): 0.02 L | Pre-bronchodilator FEV1 change from baseline, LS Mean Diff vs. placebo (atopic medical conditions: Yes): -0.03 L | Pre-bronchodilator FEV1 change from baseline, Mean (atopic medical conditions: Yes): 0.03 L | Pre-bronchodilator FEV1 change from baseline, LS Mean (background ICS/LABA dose High): -0.11 L | Pre-bronchodilator FEV1 change from baseline, LS Mean Diff vs. placebo (background ICS/LABA dose High): 0.02 L | Pre-bronchodilator FEV1 change from baseline, Mean (background ICS/LABA dose High): -0.05 L | Pre-bronchodilator FEV1 change from baseline, Mean (background ICS/LABA dose Medium): 0.04 L | Pre-bronchodilator FEV1 change from baseline, LS Mean (baseline ACQ-5 >2): -0.12 L | Pre-bronchodilator FEV1 change from baseline, LS Mean Diff vs. placebo (baseline ACQ-5 >2): -0.04 L | Pre-bronchodilator FEV1 change from baseline, Mean (baseline ACQ-5 >2): -0.09 L | Pre-bronchodilator FEV1 change from baseline, LS Mean (baseline ACQ-5 ≤2): -0.12 L | Pre-bronchodilator FEV1 change from baseline, LS Mean Diff vs. placebo (baseline ACQ-5 ≤2): 0.04 L | Pre-bronchodilator FEV1 change from baseline, Mean (baseline ACQ-5 ≤2): 0.00 L | Pre-bronchodilator FEV1 change from baseline, LS Mean (baseline BMI <25 kg/m^2): -0.09 L | Pre-bronchodilator FEV1 change from baseline, LS Mean Diff vs. placebo (baseline BMI <25 kg/m^2): 0.15 L | Pre-bronchodilator FEV1 change from baseline, Mean (baseline BMI <25 kg/m^2): 0.02 L | Pre-bronchodilator FEV1 change from baseline, LS Mean (baseline BMI ≥25-<30 kg/m^2): -0.06 L | Pre-bronchodilator FEV1 change from baseline, LS Mean Diff vs. placebo (baseline BMI ≥25-<30 kg/m^2): 0.06 L | Pre-bronchodilator FEV1 change from baseline, Mean (baseline BMI ≥25-<30 kg/m^2): -0.00 L | Pre-bronchodilator FEV1 change from baseline, LS Mean (baseline BMI ≥30 kg/m^2): -0.04 L | Pre-bronchodilator FEV1 change from baseline, LS Mean Diff vs. placebo (baseline BMI ≥30 kg/m^2): -0.13 L | Pre-bronchodilator FEV1 change from baseline, Mean (baseline BMI ≥30 kg/m^2): -0.18 L | Pre-bronchodilator FEV1 change from baseline, LS Mean [2]: -0.08 L | Pre-bronchodilator FEV1 change from baseline, LS Mean Diff vs. placebo [2]: 0.04 L | Pre-bronchodilator FEV1 change from baseline, Mean [2]: -0.06 L | Pre-bronchodilator FEV1 change from baseline, LS Mean [3]: -0.23 L | Pre-bronchodilator FEV1 change from baseline, LS Mean Diff vs. placebo [3]: -0.00 L | Pre-bronchodilator FEV1 change from baseline, Mean [3]: -0.24 L | Pre-bronchodilator FEV1 change from baseline, LS Mean [4]: 0.07 L | Pre-bronchodilator FEV1 change from baseline, LS Mean Diff vs. placebo [4]: -0.05 L | Pre-bronchodilator FEV1 change from baseline, Mean [4]: 0.08 L | Pre-bronchodilator FEV1 change from baseline, LS Mean [5]: -0.09 L | Pre-bronchodilator FEV1 change from baseline, LS Mean Diff vs. placebo [5]: -0.03 L | Pre-bronchodilator FEV1 change from baseline, Mean [5]: -0.02 L | Pre-bronchodilator FEV1 change from baseline, LS Mean (baseline FeNO <25 ppb): -0.16 L | Pre-bronchodilator FEV1 change from baseline, LS Mean Diff vs. placebo (baseline FeNO <25 ppb): 0.03 L | Pre-bronchodilator FEV1 change from baseline, Mean (baseline FeNO <25 ppb): -0.12 L | Pre-bronchodilator FEV1 change from baseline, LS Mean (baseline FeNO <35 ppb): -0.19 L | Pre-bronchodilator FEV1 change from baseline, LS Mean Diff vs. placebo (baseline FeNO <35 ppb): -0.04 L | Pre-bronchodilator FEV1 change from baseline, Mean (baseline FeNO <35 ppb): -0.10 L | Pre-bronchodilator FEV1 change from baseline, LS Mean (baseline FeNO ≥25 ppb): -0.00 L | Pre-bronchodilator FEV1 change from baseline, LS Mean Diff vs. placebo (baseline FeNO ≥25 ppb): -0.01 L | Pre-bronchodilator FEV1 change from baseline, Mean (baseline FeNO ≥25 ppb): 0.01 L | Pre-bronchodilator FEV1 change from baseline, LS Mean (baseline FeNO ≥35 ppb): 0.05 L | Pre-bronchodilator FEV1 change from baseline, LS Mean Diff vs. placebo (baseline FeNO ≥35 ppb): 0.06 L | Pre-bronchodilator FEV1 change from baseline, Mean (baseline FeNO ≥35 ppb): 0.08 L | Pre-bronchodilator FEV1 change from baseline, LS Mean (baseline IgE <100 IU/mL): -0.11 L | Pre-bronchodilator FEV1 change from baseline, LS Mean Diff vs. placebo (baseline IgE <100 IU/mL): -0.03 L | Pre-bronchodilator FEV1 change from baseline, Mean (baseline IgE <100 IU/mL): -0.09 L | Pre-bronchodilator FEV1 change from baseline, LS Mean [6]: -0.11 L | Pre-bronchodilator FEV1 change from baseline, LS Mean Diff vs. placebo [6]: 0.01 L | Pre-bronchodilator FEV1 change from baseline, Mean [6]: -0.02 L | Pre-bronchodilator FEV1 change from baseline, LS Mean (baseline IgE ≥100 IU/mL): -0.04 L | Pre-bronchodilator FEV1 change from baseline, LS Mean Diff vs. placebo (baseline IgE ≥100 IU/mL): 0.02 L | Pre-bronchodilator FEV1 change from baseline, Mean (baseline IgE ≥100 IU/mL): -0.02 L | Pre-bronchodilator FEV1 change from baseline, LS Mean [7]: -0.02 L | Pre-bronchodilator FEV1 change from baseline, LS Mean Diff vs. placebo [7]: 0.01 L | Pre-bronchodilator FEV1 change from baseline, Mean [7]: -0.08 L | Pre-bronchodilator FEV1 change from baseline, LS Mean [8]: -0.08 L | Pre-bronchodilator FEV1 change from baseline, LS Mean Diff vs. placebo [8]: -0.04 L | Pre-bronchodilator FEV1 change from baseline, Mean [8]: -0.10 L | Pre-bronchodilator FEV1 change from baseline, LS Mean [9]: -0.15 L | Pre-bronchodilator FEV1 change from baseline, LS Mean Diff vs. placebo [9]: -0.07 L | Pre-bronchodilator FEV1 change from baseline, Mean [9]: -0.10 L | Pre-bronchodilator FEV1 change from baseline, LS Mean [10]: -0.03 L | Pre-bronchodilator FEV1 change from baseline, LS Mean Diff vs. placebo [10]: 0.07 L | Pre-bronchodilator FEV1 change from baseline, Mean [10]: -0.01 L | Pre-bronchodilator FEV1 change from baseline, LS Mean Diff vs. placebo [11]: 0.07 L | Pre-bronchodilator FEV1 change from baseline, Mean [11]: 0.04 L | Pre-bronchodilator FEV1 change from baseline, LS Mean [12]: -0.21 L | Pre-bronchodilator FEV1 change from baseline, LS Mean Diff vs. placebo [12]: 0.03 L | Pre-bronchodilator FEV1 change from baseline, Mean [12]: -0.05 L | Pre-bronchodilator FEV1 change from baseline, LS Mean [13]: -0.07 L | Pre-bronchodilator FEV1 change from baseline, LS Mean Diff vs. placebo [13]: -0.01 L | Pre-bronchodilator FEV1 change from baseline, Mean [13]: -0.02 L | Pre-bronchodilator FEV1 change from baseline, Mean (baseline weight <60 kg): -0.02 L | Pre-bronchodilator FEV1 change from baseline, LS Mean (baseline weight ≥60-<90 kg): -0.09 L | Pre-bronchodilator FEV1 change from baseline, LS Mean Diff vs. placebo (baseline weight ≥60-<90 kg): 0.03 L | Pre-bronchodilator FEV1 change from baseline, Mean (baseline weight ≥60-<90 kg): -0.01 L
